Data published in ChEMBL document CHEMBL1146919, “Triazolo-tetrahydrofluorenones as selective estrogen receptor beta agonists” (Bioorg Med Chem Lett, 2006).

Assays:
[1] = Plasma clearance in Sprague-Dawley rat at 1 mg/kg, iv and 2 mg/kg, po; type: ADME, organism-based
[2] = Half life in Sprague-Dawley rat at 1 mg/kg, iv and 2 mg/kg, po; type: ADME, organism-based; conditions: in vivo
[3] = Bioavailability in Sprague-Dawley rat at 1 mg/kg, iv and 2 mg/kg, po; type: ADME, organism-based; conditions: in vivo
[4] = AUC in Sprague-Dawley rat at 1 mg/kg, iv; type: ADME, organism-based; design: dose 1 mg/kg, route intravenous; conditions: plasma
Estrogen receptor [5] = target: T1, Estrogen receptor (Homo sapiens, UniProt P03372)
T1 sequence (P03372 whole entry): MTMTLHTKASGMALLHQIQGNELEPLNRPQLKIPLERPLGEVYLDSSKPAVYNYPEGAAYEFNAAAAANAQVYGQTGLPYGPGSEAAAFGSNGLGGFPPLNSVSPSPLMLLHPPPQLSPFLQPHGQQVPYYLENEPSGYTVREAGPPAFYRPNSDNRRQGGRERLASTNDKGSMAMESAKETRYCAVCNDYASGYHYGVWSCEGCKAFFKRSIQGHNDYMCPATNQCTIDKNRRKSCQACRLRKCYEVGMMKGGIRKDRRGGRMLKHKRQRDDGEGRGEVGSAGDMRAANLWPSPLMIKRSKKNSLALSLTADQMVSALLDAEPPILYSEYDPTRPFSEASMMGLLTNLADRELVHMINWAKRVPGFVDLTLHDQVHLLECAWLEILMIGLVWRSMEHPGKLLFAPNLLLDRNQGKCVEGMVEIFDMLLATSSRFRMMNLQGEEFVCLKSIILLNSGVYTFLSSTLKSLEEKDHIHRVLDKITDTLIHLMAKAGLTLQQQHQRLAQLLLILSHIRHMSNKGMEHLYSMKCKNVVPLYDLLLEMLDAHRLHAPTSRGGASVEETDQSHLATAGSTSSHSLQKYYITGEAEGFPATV
Description: Binding affinity to human recombinant ERalpha by scintillation proximity assay

Estrogen receptor beta [6] = target: T2, Estrogen receptor beta (Homo sapiens, UniProt Q92731)
Description: Binding affinity to human recombinant ERbeta by scintillation proximity assay

Estrogen receptor [7] = target: T1, Estrogen receptor; remark: listed apart in the source
Description: Agonist activity at human recombinant ERalpha expressed in HEK293 cells by alkaline phosphatase reporter gene transactivation assay

Estrogen receptor beta [8] = target: T2, Estrogen receptor beta; remark: listed apart in the source
Description: Agonist activity at human recombinant ERbeta expressed in HEK293 cells by alkaline phosphatase reporter gene transactivation assay

T2 sequence (Q92731 whole entry): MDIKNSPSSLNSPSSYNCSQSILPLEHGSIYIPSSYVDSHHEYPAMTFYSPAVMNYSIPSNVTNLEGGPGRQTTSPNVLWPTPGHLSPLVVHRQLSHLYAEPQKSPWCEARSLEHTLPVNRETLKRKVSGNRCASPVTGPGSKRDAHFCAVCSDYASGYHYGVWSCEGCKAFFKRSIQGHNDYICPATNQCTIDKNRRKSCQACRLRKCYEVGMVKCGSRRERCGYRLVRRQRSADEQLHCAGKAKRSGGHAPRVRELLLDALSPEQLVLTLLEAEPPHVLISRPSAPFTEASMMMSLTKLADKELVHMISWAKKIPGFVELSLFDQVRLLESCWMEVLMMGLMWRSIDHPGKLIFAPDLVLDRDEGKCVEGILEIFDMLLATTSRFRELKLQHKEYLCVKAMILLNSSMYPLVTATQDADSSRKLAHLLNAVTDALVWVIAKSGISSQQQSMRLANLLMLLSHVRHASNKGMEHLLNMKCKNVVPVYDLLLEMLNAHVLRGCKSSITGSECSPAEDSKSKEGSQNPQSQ

Structure (SMILES) | clearance [1] | half-life [2] | bioavailability [3] | AUC [4] | IC50 (Estrogen receptor [5]) | IC50 (Estrogen receptor beta [6]) | EC50 (Estrogen receptor [7]) | EC50 (Estrogen receptor beta [8])
CCCCC12CCC(=O)C(Br)=C1c1ccc3nn[nH]c3c1C2 (racemic) | 102 mL/min/kg | 90 min | 0% | 0.5 µM·h | 141 nM | 1.8 nM | 94 nM | 4 nM
CC[C@@]12CCC(=O)C(C(F)(F)F)=C1c1ccc3nn[nH]c3c1C2 | 108 mL/min/kg | 24 min | 59% | 0.6 µM·h | 1680 nM | 11 nM | 241 nM | 4.9 nM
CCC12CCC(=O)C(C)=C1c1ccc3[nH]nnc3c1C2 (stereo not given) |  |  |  |  | 1900 nM | 24 nM | 671 nM | 20 nM
CCC1=C2c3ccc4[nH]nnc4c3C[C@@]2(CC)CCC1=O |  |  |  |  | > 10000 nM | 1520 nM |  | 
CCCC[C@@]12CCC(=O)C(C(F)(F)F)=C1c1ccc3[nH]nnc3c1C2 |  |  |  |  | 896 nM | 3.2 nM | 169 nM | 2.3 nM
CCCCC12CCC(=O)C(CCC)=C1c1ccc3[nH]nnc3c1C2 (stereo not given) |  |  |  |  | 1250 nM | 58 nM | 1180 nM | 96 nM
CCCC12CCC(=O)C(Br)=C1c1ccc3nn[nH]c3c1C2 (stereo not given) |  |  |  |  | 3300 nM | 43 nM | 561 nM | 18 nM
CCC12CCC(=O)C=C1c1ccc3nn[nH]c3c1C2 (stereo not given) |  |  |  |  | > 10000 nM | 3040 nM | 1230 nM | 475 nM
CCC12CCC(=O)C(Br)=C1c1ccc3nn[nH]c3c1C2 (stereo not given) |  |  |  |  | 5170 nM | 60 nM | 1270 nM | 46 nM
CCCC12CCC(=O)C(CC)=C1c1ccc3[nH]nnc3c1C2 (stereo not given) |  |  |  |  | 612 nM | 18 nM | 120 nM | 7.7 nM
CCCCC1=C2c3ccc4[nH]nnc4c3CC2(CC)CCC1=O (stereo not given) |  |  |  |  | 1130 nM | 43 nM | 681 nM | 60 nM
CCCC1=C2c3ccc4[nH]nnc4c3CC2(CCC)CCC1=O (stereo not given) |  |  |  |  | 344 nM | 23 nM |  | 
CCCCC12CCC(=O)C(C)=C1c1ccc3[nH]nnc3c1C2 (stereo not given) |  |  |  |  | 5980 nM | 27 nM |  | 20 nM
CCCC1=C2c3ccc4nn[nH]c4c3CC2(CC)CCC1=O (stereo not given) |  |  |  |  | 352 nM | 11 nM | 794 nM | 14 nM
CCCCC12CCC(=O)C(c3ccco3)=C1c1ccc3[nH]nnc3c1C2 (stereo not given) |  |  |  |  | 1120 nM | 7.4 nM | 870 nM | 6.5 nM
CCCC[C@@]12CCC(=O)C(c3cccs3)=C1c1ccc3nn[nH]c3c1C2 |  |  |  |  | 34 nM | 2.3 nM | 79 nM | 0.96 nM
CCC1=C2c3ccc4[nH]nnc4c3C[C@]2(CC)CCC1=O | 64.8 mL/min/kg | 18 min | 70% | 1 µM·h | 647 nM | 5.7 nM | 140 nM | 5.8 nM
CCC12CCC(=O)C(c3ccc(O)cc3)=C1c1ccc3[nH]nnc3c1C2 (stereo not given) |  |  |  |  | 81 nM | 11 nM | 901 nM | 4.3 nM
CCCC[C@@]12CCC(=O)C(Br)=C1c1ccc3[nH]nnc3c1C2 | 24.4 mL/min/kg | 174 min | 36% | 1.9 µM·h | 1910 nM | 5.7 nM | 519 nM | 5.5 nM
CCC1=C2c3ccc4[nH]nnc4c3CC2(CC)CCC1=O (stereo not given) |  |  |  |  | 1320 nM | 18 nM | 460 nM | 7.3 nM
CCCC[C@]12CCC(=O)C(CC)=C1c1ccc3[nH]nnc3c1C2 | 18.3 mL/min/kg | 72 min | 99% | 3 µM·h | 4750 nM | 242 nM | 391 nM | 28 nM
CCCC12CCC(=O)C(C)=C1c1ccc3nn[nH]c3c1C2 (stereo not given) |  |  |  |  | 6170 nM | 81 nM | 449 nM | 17 nM
CCCCC12CCC(=O)C(CC)=C1c1ccc3[nH]nnc3c1C2 (racemic) | 31.6 mL/min/kg | 174 min | 85% | 1.7 µM·h |  |  |  | 
CCCC[C@@]12CCC(=O)C(CC)=C1c1ccc3nn[nH]c3c1C2 | 62 mL/min/kg | 24 min | 28% | 0.9 µM·h | 220 nM | 5.1 nM | 30 nM | 0.4 nM
